Columns and labels:
Plasmodium falciparum [1] = assay: Resistance index, ratio of IC50 for chloroquine-resistant Plasmodium falciparum Dd2 to IC50 for chloroquine-sensitive Plasmodium falciparum D10; format: functional
Plasmodium falciparum [2] = assay: Antiplasmodial activity against chloroquine-resistant Plasmodium falciparum Dd2 by parasite LDH assay; format: functional, organism-based
CHO = assay: Cytotoxicity against CHO cells by MTT assay; format: cell-based; conditions: Cricetulus griseus
Plasmodium falciparum [3] = assay: Antiplasmodial activity against chloroquine-sensitive Plasmodium falciparum D10 by parasite LDH assay; format: functional, organism-based
[4] = Selectivity index, ratio of IC50 for CHO cells to IC50 for chloroquine-sensitive Plasmodium falciparum D10; format: toxicity, cell-based; conditions: hamster, read-out: Ratio IC50

Structure (SMILES)	Ratio IC50 (Plasmodium falciparum [1])	IC50 (Plasmodium falciparum [2])	IC50 (CHO)	IC50 (Plasmodium falciparum [3])	selectivity ratio [4]
CCN(CC)CC(CN(CC)CC)NCc1ccccc1	1.3	30.2 µM	> 300 µM	23.7 µM	–
CCN(CC)CC(CN(CC)CC)NCc1ccc(Cl)cc1	2.4	19.8 µM	76.4 µM	8.41 µM	9.1
CCN(CC)CC(CN(CC)CC)NCc1ccc(OC)cc1	2	13.5 µM	170 µM	6.66 µM	24.2
Nc1ncnc2c1ncn2CC1CN1Cc1ccccc1 (racemic)	–	–	–	> 350 µM	–
Nc1ncnc2c1ncn2CC1CN1Cc1ccc(Cl)cc1 (racemic)	–	–	–	> 300 µM	–
COc1ccc(CN2CC2Cn2cnc3c(N)ncnc32)cc1 (racemic)	–	–	–	267 µM	–
Cc1cn(CC2CN2Cc2ccc(Cl)cc2)c(=O)[nH]c1=O (racemic)	–	–	–	138 µM	–
COc1ccc(CN2CC2Cn2cc(C)c(=O)[nH]c2=O)cc1 (racemic)	–	–	–	172 µM	–
c1ccc(CN2CC2Cn2cncn2)cc1 (racemic)	–	–	–	80.7 µM	–
Clc1ccc(CN2CC2Cn2cncn2)cc1 (racemic)	–	–	–	126 µM	–
COc1ccc(CN2CC2Cn2cncn2)cc1 (racemic)	5.6	23.2 µM	> 400 µM	4.18 µM	–
CCN(CC)CC1CN1Cc1ccccc1 (racemic)	3.2	48.3 µM	402 µM	15.2 µM	26.3
CCN(CC)CC1CN1Cc1ccc(Cl)cc1 (racemic)	3.7	23.7 µM	247 µM	6.49 µM	38.1
CCN(CC)CC1CN1Cc1ccc(OC)cc1 (racemic)	2.1	18 µM	193 µM	8.54 µM	22.6
CCN(CC)CC(Cn1cnc2c(N)ncnc21)NCc1ccccc1 (racemic)	–	–	–	214 µM	–
CCN(CC)CC(Cn1cnc2c(N)ncnc21)NCc1ccc(Cl)cc1 (racemic)	–	–	–	78.2 µM	–
CCN(CC)CC(Cn1cnc2c(N)ncnc21)NCc1ccc(OC)cc1 (racemic)	–	–	–	81.9 µM	–
CCN(CC)CC(Cn1cc(C)c(=O)[nH]c1=O)NCc1ccc(Cl)cc1 (racemic)	–	–	–	71.7 µM	–
CCN(CC)CC(Cn1cc(C)c(=O)[nH]c1=O)NCc1ccc(OC)cc1 (racemic)	–	–	–	128 µM	–
CCN(CC)CC(Cn1cncn1)NCc1ccccc1 (racemic)	2.3	98.8 µM	> 300 µM	42.9 µM	–
CCN(CC)CC(Cn1cncn1)NCc1ccc(Cl)cc1 (racemic)	2	13.1 µM	> 300 µM	6.52 µM	–
CCN(CC)CC(Cn1cncn1)NCc1ccc(OC)cc1 (racemic)	41.1	80.9 µM	159 µM	1.98 µM	–
CC[C@H]1CN2CCc3cc(OC)c(OC)cc3[C@@H]2C[C@@H]1C[C@H]1NCCc2cc(OC)c(OC)cc21 [EMETINE]	–	–	0.127 µM	–	–
